Laboratory results from patent publication US9029337B2, “Modulation of factor 7 expression” (Isis Pharmaceuticals, Inc., priority 2007, dated 2015).
Strand notation (5' to 3'): a small letter for the sugar, then the base; units joined by * are phosphorothioate-linked, units joined directly phosphodiester-linked; [ ] holds rarer units or linkages, { } end groups; capitals alone tell only the bases. e = 2'-O-(2-methoxyethyl) (MOE); [5mC] = 5-methylcytosine; d = 2'-deoxy (DNA)

How the values were obtained:
human Factor 7 mRNA [1] = assay: Dose-dependent antisense inhibition of human Factor 7 in HepB3 cells, lipofectin; assay type: cell-based; conditions: approximately 16 hours
Protocol: Cells were plated at a density of 4,000 cells per well and treated with lipofectin reagent with 3.125 nM, 6.25 nM, 12.5 nM, 25 nM, 50 nM, and 100 nM concentrations of antisense oligonucleotide, as indicated in Table 3. After a treatment period of approximately 16 hours, RNA was isolated from the cells and Factor 7 mRNA levels were measured by real-time RT-PCR, as described herein. Human Factor 7 primer probe set RTS 2927 (forward sequence: […], incorporated herein as SEQ ID NO: 164; reverse sequence: […], incorporated herein as SEQ ID NO: 165; probe sequence: TGGGTGGTCTCCGCGGCCX, incorporated herein as SEQ ID NO: 166) was used to measure mRNA levels. Factor 7 mRNA levels were adjusted according to total RNA content as measured by RIBOGREEN®. Results are presented as percent inhibition of Factor 7, relative to untreated control cells.
Cells were plated at a density of 4,000 cells per well and transfected using lipofectin reagent with 6.25 nM, 12.5 nM, 25.0 nM, 50.0 nM, and 100.0 nM concentrations of antisense oligonucleotide, as indicated in Table 7. After a treatment period of approximately 16 hours, RNA was isolated from the cells and Factor 7 mRNA levels were measured by real-time RT-PCR, as described herein. Human Factor 7 primer probe set RTS 2927 was used to measure mRNA levels. Factor 7 mRNA levels were adjusted according to total RNA content as measured by RIBOGREEN®. Results are presented as percent inhibition of Factor 7, relative to untreated control cells.
Cells were plated at a density of 4,000 cells per well and transfected using lipofectin reagent with 3.125 nM, 6.25 nM, 12.5 nM, 25 nM, 50 nM, and 100 nM concentrations of antisense oligonucleotide, as specified in Table 14. After a treatment period of approximately 16 hours, RNA was isolated from the cells and Factor 7 mRNA levels were measured by quantitative real-time PCR. Human Factor 7 primer probe set RTS 2927 was used to measure mRNA levels. Factor 7 mRNA levels were adjusted according to total RNA content, as measured by RIBOGREEN®. Results are presented as percent inhibition of Factor 7, relative to untreated control cells.

human Factor 7 mRNA [2] = assay: Antisense inhibition of human Factor 7 mRNA in HepB3 cells, 50 nM antisense oligonucleotide, lipofectin; assay type: cell-based; conditions: for % Inhibition: lipofectin, 50 nM antisense oligonucleotide, approximately 24 hours, Factor 7 mRNA by real-time RT-PCR (RTS 2927), relative to untreated control
Method in brief: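 After transfection of wells containing 4,000 cells, treatment ran for approximately 24 h. RIBOGREEN®-measured total RNA served for normalisation, and inhibition was calculated as a percentage of untreated control.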

Substance: 416446 (antisense eG*eG*eT*e[5mC]*eA*d[5mC]*dT*dG*d[5mC]*dA*dG*dT*dA*d[5mC]*dT*eG*e[5mC]*eT*e[5mC]*eA) [compound 416446]
- percent inhibition of Factor 7 (human Factor 7 mRNA [1]; Table 7, 6.25 nM): 25%
- percent inhibition of Factor 7 (human Factor 7 mRNA [1]; Table 7, 12.5 nM): 24%
- percent inhibition of Factor 7 (human Factor 7 mRNA [1]; Table 7, 25.0 nM): 50%
- percent inhibition of Factor 7 (human Factor 7 mRNA [1]; Table 7, 50.0 nM): 69%
- percent inhibition of Factor 7 (human Factor 7 mRNA [1]; Table 7, 100.0 nM): 64%
- % Inhibition (human Factor 7 mRNA [2]): 64%

Substance: 416449 (antisense eT*eA*eG*eG*eT*dA*dT*dT*dT*dT*dT*d[5mC]*d[5mC]*dA*d[5mC]*eA*eT*eG*eG*eA) [compound 416449]
- percent inhibition of Factor 7 (human Factor 7 mRNA [1]; Table 7, 6.25 nM): 19%
- percent inhibition of Factor 7 (human Factor 7 mRNA [1]; Table 7, 12.5 nM): 33%
- percent inhibition of Factor 7 (human Factor 7 mRNA [1]; Table 7, 25.0 nM): 45%
- percent inhibition of Factor 7 (human Factor 7 mRNA [1]; Table 7, 50.0 nM): 65%
- percent inhibition of Factor 7 (human Factor 7 mRNA [1]; Table 7, 100.0 nM): 85%
- % Inhibition (human Factor 7 mRNA [2]): 68%

Substance: 416455 (antisense e[5mC]*eG*e[5mC]*e[5mC]*eG*dG*d[5mC]*dT*d[5mC]*dT*dG*d[5mC]*dT*d[5mC]*dA*eT*e[5mC]*e[5mC]*e[5mC]*e[5mC]) [compound 416455]
- percent inhibition of Factor 7 (human Factor 7 mRNA [1]; Table 7, 6.25 nM): 28%
- percent inhibition of Factor 7 (human Factor 7 mRNA [1]; Table 7, 12.5 nM): 44%
- percent inhibition of Factor 7 (human Factor 7 mRNA [1]; Table 7, 25.0 nM): 64%
- percent inhibition of Factor 7 (human Factor 7 mRNA [1]; Table 7, 50.0 nM): 78%
- percent inhibition of Factor 7 (human Factor 7 mRNA [1]; Table 7, 100.0 nM): 87%
- % Inhibition (human Factor 7 mRNA [2]): 72%
- % Inhibition (human Factor 7 mRNA levels) (human Factor 7 mRNA [2]; oligonucleotides targeted to nucleobases 13760 to 13789 of SEQ ID NO: 1 (Table 10)): 51%

Substance: 416472 (antisense e[5mC]*eA*eG*e[5mC]*e[5mC]*dT*dT*dG*dG*d[5mC]*dT*dT*dT*d[5mC]*dT*e[5mC]*eT*e[5mC]*e[5mC]*eA) [compound 416472]
- percent inhibition of Factor 7 (human Factor 7 mRNA [1]; Table 7, 6.25 nM): 16%
- percent inhibition of Factor 7 (human Factor 7 mRNA [1]; Table 7, 12.5 nM): 44%
- percent inhibition of Factor 7 (human Factor 7 mRNA [1]; Table 7, 25.0 nM): 64%
- percent inhibition of Factor 7 (human Factor 7 mRNA [1]; Table 7, 50.0 nM): 80%
- percent inhibition of Factor 7 (human Factor 7 mRNA [1]; Table 7, 100.0 nM): 88%
- % Inhibition (human Factor 7 mRNA [2]): 76%

Substance: 416477 (antisense e[5mC]*eA*eG*e[5mC]*e[5mC]*dT*dG*dA*dG*dG*d[5mC]*d[5mC]*dA*dG*d[5mC]*eA*eG*eA*eT*e[5mC]) [compound 416477]
- percent inhibition of Factor 7 (human Factor 7 mRNA [1]; Table 7, 6.25 nM): 21%
- percent inhibition of Factor 7 (human Factor 7 mRNA [1]; Table 7, 12.5 nM): 46%
- percent inhibition of Factor 7 (human Factor 7 mRNA [1]; Table 7, 25.0 nM): 64%
- percent inhibition of Factor 7 (human Factor 7 mRNA [1]; Table 7, 50.0 nM): 78%
- percent inhibition of Factor 7 (human Factor 7 mRNA [1]; Table 7, 100.0 nM): 87%
- % Inhibition (human Factor 7 mRNA [2]): 74%
- % Inhibition (human Factor 7 mRNA levels) (human Factor 7 mRNA [2]; oligonucleotides targeted to nucleobases 14707 to 14732 of SEQ ID NO: 1 (Table 11)): 71%

Substance: 416507 (antisense eG*eG*eT*eT*eA*d[5mC]*dT*dG*dA*dG*d[5mC]*dG*d[5mC]*dG*dG*eA*eA*eG*eA*eA) [compound 416507]
- percent inhibition of Factor 7 (human Factor 7 mRNA [1]; Table 7, 6.25 nM): 30%
- percent inhibition of Factor 7 (human Factor 7 mRNA [1]; Table 7, 12.5 nM): 53%
- percent inhibition of Factor 7 (human Factor 7 mRNA [1]; Table 7, 25.0 nM): 70%
- percent inhibition of Factor 7 (human Factor 7 mRNA [1]; Table 7, 50.0 nM): 77%
- percent inhibition of Factor 7 (human Factor 7 mRNA [1]; Table 7, 100.0 nM): 72%
- % Inhibition (human Factor 7 mRNA [2]): 73%

Substance: 416508 (antisense e[5mC]*eG*eA*eG*eT*dT*d[5mC]*dT*dG*d[5mC]*dA*dG*dG*dA*dG*e[5mC]*eG*eG*e[5mC]*e[5mC]) [compound 416508]
- percent inhibition of Factor 7 (human Factor 7 mRNA [1]; Table 7, 6.25 nM): 42%
- percent inhibition of Factor 7 (human Factor 7 mRNA [1]; Table 7, 12.5 nM): 51%
- percent inhibition of Factor 7 (human Factor 7 mRNA [1]; Table 7, 25.0 nM): 71%
- percent inhibition of Factor 7 (human Factor 7 mRNA [1]; Table 7, 50.0 nM): 79%
- percent inhibition of Factor 7 (human Factor 7 mRNA [1]; Table 7, 100.0 nM): 89%
- % Inhibition of human Factor 7 mRNA levels (human Factor 7 mRNA [2]; gapmers targeted to nucleobases 4868 to 4899 of SEQ ID NO: 1, Table 8): 67%
- % Inhibition (human Factor 7 mRNA [2]): 67%

Substance: 416549 (antisense eG*eA*e[5mC]*eA*eA*dT*dG*dG*dT*d[5mC]*dA*dG*dG*dG*d[5mC]*eT*eG*eG*eT*eT) [compound 416549]
- percent inhibition of Factor 7 (human Factor 7 mRNA [1]; Table 7, 6.25 nM): 38%
- percent inhibition of Factor 7 (human Factor 7 mRNA [1]; Table 7, 12.5 nM): 44%
- percent inhibition of Factor 7 (human Factor 7 mRNA [1]; Table 7, 25.0 nM): 63%
- percent inhibition of Factor 7 (human Factor 7 mRNA [1]; Table 7, 50.0 nM): 73%
- percent inhibition of Factor 7 (human Factor 7 mRNA [1]; Table 7, 100.0 nM): 78%
- % Inhibition (human Factor 7 mRNA [2]): 68%
- % Inhibition (human Factor 7 mRNA levels) (human Factor 7 mRNA [2]; oligonucleotides targeted to nucleobases 11830 to 11869 of SEQ ID NO: 1 (Table 9)): 69%
